Test results published in patent US4575498A, “Method for restoring depleted purine nucleotide pools” (priority 1983, dated 1986).

How the values were obtained:
[1] = AICAriboside plasma concentration during infusion; type: in vivo, mongrel dogs; settings: dog, after 42 min of infusion, 100 mM at 1.9 ml/min into left atrium
Method: Animal Preparation--Seven adult mongrel dogs were anesthetized intramuscularly with 40 mg of morphine sulfate and intravenously with 80 mg/kg of chloralose, an endotraceal tube was inserted, and ventilation was maintained with an Emerson volume-cycled respirator and 100% oxygen. The heart was exposed through a left lateral thoracotomy, polyvinyl chloride catheters (3-mm outer diameter) were inserted into the left atrium and into the aorta through the right femoral artery, and a Statham TTQ electromagnetic flow meter probe was positioned around the ascending aorta. The aortic pressure catheter was connected to a Statham P23Db transducer (Statham Instruments, Inc., Oxnard, CA) with the zero reference at the midchest level. Aortic flow was measured with a Howell Instruments Series 1000 Flowmeter, and stroke volume and cardiac output were calculated from the aortic flow measurement. All hemodynamic data were monitored continuously throughout the course of the study. […]
After hemodynamic parameters had stabilized, regional myocardial blood flow was measured by injecting radioactively labled microspheres. […] Venous and arterial blood samples were also obtained at 42 min. of infusion, and regional myocardial blood flow was measured at 10 and 39 min. of AICAriboside infusion. […]

[2] = system: skeletal muscle; experiment: AICAriboside infusion: nucleotide, nucleoside and base content of skeletal (gastrocnemius) muscle biopsies; type: in vivo, mongrel dogs; design: AMP / ADP / ATP / TAN / IMP / Hyp (hypoxanthine): unit not given beside the values; settings: for TAN: total adenine nucleotide
[3] = system: serum urate; experiment: Serum urate concentrations; type: in vivo, mongrel dogs; settings: for Serum urate concentration: P < 0.05 vs control
Method: (§1) Animal Preparation--Seven adult mongrel dogs were anesthetized intramuscularly with 40 mg of morphine sulfate and intravenously with 80 mg/kg of chloralose, an endotraceal tube was inserted, and ventilation was maintained with an Emerson volume-cycled respirator and 100% oxygen. The heart was exposed through a left lateral thoracotomy, polyvinyl chloride catheters (3-mm outer diameter) were inserted into the left atrium and into the aorta through the right femoral artery, and a Statham TTQ electromagnetic flow meter probe was positioned around the ascending aorta. The aortic pressure catheter was connected to a Statham P23Db transducer (Statham Instruments, Inc., Oxnard, CA) with the zero reference at the midchest level. Aortic flow was measured with a Howell Instruments Series 1000 Flowmeter, and stroke volume and cardiac output were calculated from the aortic flow measurement. All hemodynamic data were monitored continuously throughout the course of the study. In 5 of the animals, the skin of the left dorsal hindlimb was opened and the gastrocnemius muscle was identified for subsequent tissue sampling.
(§2) After hemodynamic parameters had stabilized, regional myocardial blood flow was measured by injecting radioactively labled microspheres. Tissue samples were obtained from the left ventricle and from the left gastrocnemius muscle. A venous blood sample was also obtained. AICAriboside (100 mM) was then infused into the left atrium at 1.9 ml/min. Repeat tissue samples were taken from the left ventricle at 15, 30 and 42 min. of infusion, and tissue samples were taken from the gastrocnemius muscle at 30 min. of infusion. Venous and arterial blood samples were also obtained at 42 min. of infusion, and regional myocardial blood flow was measured at 10 and 39 min. of AICAriboside infusion. AICAriboside infusion was terminated after 42 min., and tissue samples were taken from the left ventricle at 10, 20, 30 and 60 min. postinfusion and from the left gastrocnemius muscle at 2, 22 and 60 min. postinfusion. Venous blood samples were obtained at 10, 30 and 60 min. after AICAriboside infusion. In 4 of the 7 dogs, 400 mM formate was infused intravenously at the rate of 1.9 ml/min. for 42 min. prior to and during AICAriboside infusion. These same animals also received 6 mg of folinic acid as an intravenous bolus 30 min. prior to and 15 min. after initiating AICAriboside infusion.
(§3) Other Methods--Serum urate was determined by the enzymatic spectrophotometric method as previously described in Liddle et al., J. Lab. Clin. Med., 54, 909-913 (1959).

[4] = Serum urate concentrations; type: in vivo, mongrel dogs; settings: dog, in vivo; of 8 mmol infused, during 42 min; minimal estimate from serum urate increase and total body water; read-out: infused AICAriboside metabolized to purine nucleotides and subsequently catabolized
Method: as §1, §2, §3

[5] = system: myocardium; experiment: Regional myocardial blood flow, coronary occlusion and reperfusion; type: in vivo, dogs; settings: any time point
Method: Catheters were placed in the left atrium and aorta, and a snare positioned around the left anterior descending coronary artery in 15 open-chest dogs. Regional myocardial blood flow was measured and transmural tissue samples were obtained using known techniques. Blood flow measurements and tissue samples were obtained prior to and just before release of a 12-minute coronary occlusion. The chest was closed and the animals allowed to awaken. Twenty-four hours later, the animals were anesthetized, the chest opened, blood flow measured, and tissue samples obtained. No hemodynamic measurements were made on the animals.
In seven animals, 200 mM AICAriboside (Sigma Chemical Co.) was infused into the left atrial catether at either 14 μmol/min (n=2) or 37 μmol/min (n=5) beginning with coronary occlusion and continuing for 24 hours. Eight control animals were infused with an equal volume of saline over 24 hours.
All comparisons between AICAriboside and saline treated animals were done by unpaired analyses.

[6] = 2 min postinfusion, P < 0.05 vs control
[7] = 30 min of AICAriboside infusion
[8] = 30 min of AICAriboside infusion, P < 0.05 vs control

NC(=O)c1ncn([C@@H]2O[C@H](CO)[C@@H](O)[C@H]2O)c1N [AICAriboside, 5-amino-4-imidazolecarboxamide riboside]
concentration at 0.7 h [1]: 336 ± 26 µM | AMP ([2]; 2 min postinfusion): 0.016 ± 0.002 | Hyp (hypoxanthine) ([2]; 2 min postinfusion): 0.022 ± 0.009 | Ino (inosine) ([2]; 2 min postinfusion): 0.024 ± 0.008 | ADP [2, 6]: 0.65 ± 0.06 | ATP [2, 6]: 4.68 ± 0.45 | IMP [2, 6]: 0.046 ± 0.012 | ADP ([2]; 22 min postinfusion): 0.59 ± 0.03 | AMP ([2]; 22 min postinfusion): 0.014 ± 0.003 | ATP ([2]; 22 min postinfusion): 4.34 ± 0.21 | Hyp (hypoxanthine) ([2]; 22 min postinfusion): 0.021 ± 0.008 | Ino (inosine) ([2]; 22 min postinfusion): 0.024 ± 0.011 | IMP ([2]; 22 min postinfusion, P < 0.05 vs control): 0.045 ± 0.016 | ADP [2, 7]: 0.53 ± 0.04 | AMP [2, 7]: 0.016 ± 0.009 | ATP [2, 7]: 3.92 ± 0.23 | Hyp (hypoxanthine) [2, 8]: 0.024 ± 0.007 | IMP [2, 8]: 0.050 ± 0.012 | Ino (inosine) [2, 8]: 0.035 ± 0.009 | ADP ([2]; 60 min postinfusion): 0.56 ± 0.05 | AMP ([2]; 60 min postinfusion): 0.018 ± 0.007 | ATP ([2]; 60 min postinfusion): 3.60 ± 0.41 | Hyp (hypoxanthine) ([2]; 60 min postinfusion): 0.041 ± 0.017 | Ino (inosine) ([2]; 60 min postinfusion): 0.055 ± 0.031 | IMP ([2]; 60 min postinfusion, P < 0.05 vs control): 0.043 ± 0.015 | increase in IMP content ([2]; AICAriboside infusion): 6-7 fold | guanine nucleotide content ([2]; not statistically significant): tended to increase | content of inosine and hypoxanthine ([2]; throughout infusion and up to 60 min thereafter): consistently elevated | content of NAD^+ ([2]; throughout infusion, did not vary): 0.32 ± 0.04 µmol/g | TAN [2, 6]: 5.34 ± 0.51 | TAN ([2]; 22 min postinfusion): 4.94 ± 0.23 | TAN [2, 7]: 4.47 ± 0.27 | TAN ([2]; 60 min postinfusion): 4.18 ± 0.44 | Serum urate concentration ([3]; 10 min postinfusion): 3.5 ± 0.5 mg/dL | Serum urate concentration ([3]; 30 min postinfusion): 2.9 ± 0.2 mg/dL | Serum urate concentration ([3]; 42 min of AICAriboside infusion): 3.5 ± 0.4 mg/dL | Serum urate concentration ([3]; 60 min postinfusion): 2.40 ± 0.4 mg/dL | increase in mean serum urate concentration ([3]; following infusion of 8 mmol of AICAriboside): 3.7 fold | metabolised at 0.7 h [4]: ≥ 25% | regional flow vs saline group [5]: no differences
